According to publication PMC4893628, “Chalcone-based Selective Inhibitors of a C4 Plant Key Enzyme as Novel Potential Herbicides” (Scientific Reports, 2016):
Like-named read-outs stand apart in the source and are kept apart here.

Assays:
Assay type in all cases: cell-based
[1] = system: Corynebacterium glutamicum ATCC13032; test: Bacterial growth in microscale cultivation, C. glutamicum; conditions: relative to control; for activity at 4 µM / activity at 40 µM / activity at 400 µM: Corynebacterium glutamicum
Procedure, shortened: (§1)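 Inhibitors in DMSO were added to the medium, at a maximum of 400 μM for trans-chalcone and 100 μM for 2'-hydroxychalcone. Cultures were seeded at OD600 0.5, or 0.25 for B. subtilis, and growth was followed as 620 nm backscatter in a BioLector at 1200 rpm. Final backscatter, growth rate and lag phase were compared with DMSO controls.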

[2] = system: Bacillus subtilis 168; test: Bacterial growth in microscale cultivation, B. subtilis; conditions: for activity at 4 µM / activity at 40 µM / activity at 400 µM / Lag Phase: relative to control; for Influence on bacterial growth: highest concentration tested (10× IC50) if not stated otherwise
Procedure, shortened: as §1

[3] = system: Escherichia coli K-12 MG1655; test: Bacterial growth in microscale cultivation, E. coli; conditions: relative to control; for activity at 4 µM / activity at 40 µM / activity at 400 µM: Escherichia coli
Procedure, shortened: as §1

[4] = system: Pseudomonas putida KT2440; test: Bacterial growth in microscale cultivation, P. putida; conditions: for activity at 4 µM / activity at 40 µM / activity at 400 µM: Pseudomonas putida; for activity at 4 µM / activity at 40 µM / activity at 400 µM / Lag Phase: relative to control
Procedure, shortened: as §1

## O=C(/C=C/c1ccccc1)c1ccc(O)cc1O [Compound 4, 2′,4′-Dihydroxychalcone]
[1]; ATCC13032, complex medium, 4 µM, read-out: Final Backscatter
  activity at 4 µM: 101%
[1]; ATCC13032, complex medium, 4 µM, read-out: Growth rate
  activity at 4 µM: 113%
[1]; ATCC13032, complex medium, 40 µM, read-out: Final Backscatter
  activity at 40 µM: 105%
[1]; ATCC13032, complex medium, 40 µM, read-out: Growth rate
  activity at 40 µM: 115%
[1]; ATCC13032, complex medium, 400 µM, read-out: Final Backscatter
  activity at 400 µM: 107%
[1]; ATCC13032, complex medium, 400 µM, read-out: Growth rate
  activity at 400 µM: 91.6%
[1]; ATCC13032, minimal medium, 4 µM, read-out: Final Backscatter
  activity at 4 µM: 102%
[1]; ATCC13032, minimal medium, 4 µM, read-out: Growth rate
  activity at 4 µM: 98.9%
[1]; ATCC13032, minimal medium, 40 µM, read-out: Final Backscatter
  activity at 40 µM: 100%
[1]; ATCC13032, minimal medium, 40 µM, read-out: Growth rate
  activity at 40 µM: 95.5%
[1]; ATCC13032, minimal medium, 400 µM, read-out: Final Backscatter
  activity at 400 µM: 110%
[1]; ATCC13032, minimal medium, 400 µM, read-out: Growth rate
  activity at 400 µM: 65.2%
[1]; complex medium, 4 µM
  Lag Phase: 97,4%
[1]; complex medium, 40 µM
  Lag Phase: 96,2%
[1]; complex medium, 400 µM
  Lag Phase: 116,6%
[1]; minimal medium, 4 µM
  Lag Phase: 98,7%
[1]; minimal medium, 40 µM
  Lag Phase: 100,0%
[1]; minimal medium, 400 µM
  Lag Phase: 169,9%
[2]; Bacillus subtilis, 168, complex medium, 4 µM, read-out: Final Backscatter
  activity at 4 µM: 92.2%
[2]; Bacillus subtilis, 168, complex medium, 4 µM, read-out: Growth rate
  activity at 4 µM: 128%
[2]; Bacillus subtilis, 168, complex medium, 40 µM, read-out: Final Backscatter
  activity at 40 µM: 94.3%
[2]; Bacillus subtilis, 168, complex medium, 40 µM, read-out: Growth rate
  activity at 40 µM: 97.4%
[2]; Bacillus subtilis, 168, complex medium, 400 µM, read-out: Final Backscatter
  activity at 400 µM: 81.5%
[2]; Bacillus subtilis, 168, complex medium, 400 µM, read-out: Growth rate
  activity at 400 µM: 92.7%
[2]; Bacillus subtilis, 168, minimal medium, 4 µM, read-out: Final Backscatter
  activity at 4 µM: 96.6%
[2]; Bacillus subtilis, 168, minimal medium, 4 µM, read-out: Growth rate
  activity at 4 µM: 91.5%
[2]; Bacillus subtilis, 168, minimal medium, 40 µM, read-out: Final Backscatter
  activity at 40 µM: 95.7%
[2]; Bacillus subtilis, 168, minimal medium, 40 µM, read-out: Growth rate
  activity at 40 µM: 108%
[2]; Bacillus subtilis, 168, minimal medium, 400 µM, read-out: Final Backscatter
  activity at 400 µM: 77.3%
[2]; Bacillus subtilis, 168, minimal medium, 400 µM, read-out: Growth rate
  activity at 400 µM: 75.2%
[2]; Complex medium
  Influence on bacterial growth: fbs↓ lag↑
[2]; Minimal medium
  Influence on bacterial growth: fbs↓, lag↑
[2]; complex medium, 4 µM
  Lag Phase: 107,7%
[2]; complex medium, 40 µM
  Lag Phase: 107,7%
[2]; complex medium, 400 µM
  Lag Phase: 166,5%
[2]; minimal medium, 4 µM
  Lag Phase: 97,7%
[2]; minimal medium, 40 µM
  Lag Phase: 100,0%
[2]; minimal medium, 400 µM
  Lag Phase: 129,1%
[3]; MG1655, complex medium, 4 µM, read-out: Final Backscatter
  activity at 4 µM: 101%
[3]; MG1655, complex medium, 4 µM, read-out: Growth rate
  activity at 4 µM: 79.6%
[3]; MG1655, complex medium, 40 µM, read-out: Final Backscatter
  activity at 40 µM: 104%
[3]; MG1655, complex medium, 40 µM, read-out: Growth rate
  activity at 40 µM: 97.2%
[3]; MG1655, complex medium, 400 µM, read-out: Final Backscatter
  activity at 400 µM: 100%
[3]; MG1655, complex medium, 400 µM, read-out: Growth rate
  activity at 400 µM: 89.4%
[3]; MG1655, minimal medium, 4 µM, read-out: Final Backscatter
  activity at 4 µM: 103%
[3]; MG1655, minimal medium, 4 µM, read-out: Growth rate
  activity at 4 µM: 79%
[3]; MG1655, minimal medium, 40 µM, read-out: Final Backscatter
  activity at 40 µM: 99.3%
[3]; MG1655, minimal medium, 40 µM, read-out: Growth rate
  activity at 40 µM: 77.8%
[3]; MG1655, minimal medium, 400 µM, read-out: Final Backscatter
  activity at 400 µM: 102%
[3]; MG1655, minimal medium, 400 µM, read-out: Growth rate
  activity at 400 µM: 76.5%
[3]; complex medium, 4 µM
  Lag Phase: 102,2%
[3]; complex medium, 40 µM
  Lag Phase: 101,8%
[3]; complex medium, 400 µM
  Lag Phase: 101,5%
[3]; minimal medium, 4 µM
  Lag Phase: 100,7%
[3]; minimal medium, 40 µM
  Lag Phase: 99,3%
[3]; minimal medium, 400 µM
  Lag Phase: 101,1%
[4]; 400 μM
  lag phase: slight increase in the lag phase
[4]; KT2440, complex medium, 4 µM, read-out: Final Backscatter
  activity at 4 µM: 97.8%
[4]; KT2440, complex medium, 4 µM, read-out: Growth rate
  activity at 4 µM: 101%
[4]; KT2440, complex medium, 40 µM, read-out: Final Backscatter
  activity at 40 µM: 102%
[4]; KT2440, complex medium, 40 µM, read-out: Growth rate
  activity at 40 µM: 100%
[4]; KT2440, complex medium, 400 µM, read-out: Final Backscatter
  activity at 400 µM: 100%
[4]; KT2440, complex medium, 400 µM, read-out: Growth rate
  activity at 400 µM: 101%
[4]; KT2440, minimal medium, 4 µM, read-out: Final Backscatter
  activity at 4 µM: 102%
[4]; KT2440, minimal medium, 4 µM, read-out: Growth rate
  activity at 4 µM: 94.1%
[4]; KT2440, minimal medium, 40 µM, read-out: Final Backscatter
  activity at 40 µM: 102%
[4]; KT2440, minimal medium, 40 µM, read-out: Growth rate
  activity at 40 µM: 98.3%
[4]; KT2440, minimal medium, 400 µM, read-out: Final Backscatter
  activity at 400 µM: 107%
[4]; KT2440, minimal medium, 400 µM, read-out: Growth rate
  activity at 400 µM: 93.9%
[4]; complex medium, 4 µM
  Lag Phase: 105,0%
[4]; complex medium, 40 µM
  Lag Phase: 106,6%
[4]; complex medium, 400 µM
  Lag Phase: 123,2%
[4]; minimal medium, 4 µM
  Lag Phase: 108,7%
[4]; minimal medium, 40 µM
  Lag Phase: 108,3%
[4]; minimal medium, 400 µM
  Lag Phase: 97,7%
